The values that follow come from US20220160751A1, “METHODS OF TREATMENT OF DISEASES AND DISORDERS ASSOCIATED WITH INCREASED TET LEVEL, INCREASED H19 LEVEL, INCREASED LEVEL OF TGF SIGNALING, OR ANY COMBINATION THEREOF” (YALE UNIVERSITY, priority 2019, published 2022).

For series [1], the system named is TGFB1, TSP1 and TGFBR2 promoters. The experiment in a line: ChIP-qPCR and QMSP in LX-2 cells. The format is cell-based, human. The conditions noted are these: 48 h, vs siCon. On the procedure:
The assays were carried out as previously described in (Zhou J et al., 2015, Nat Commun 6:10221; Zhong T et al., 2016, Oncogene 36:2345-2354) with minor modifications. Briefly, gDNA was extracted from LX-2 cells in 24-well plates using Quick-gDNA MicroPrep (Zymo Research Corporation, Irvine, Calif.; D3021). For bisulfite treatment using EZ DNA Methylation-Gold Kit (Zymo, D5006), 90-500 ng of gDNA was used per column and 20-40 μl of elution buffer was used to elute DNA from each column. qPCR was performed in a 15 μl reaction containing 5 μl of eluted DNA using iQSYBRGreen (Bio-Rad, Hercules, Calif.; 1708880) in a Bio-Rad iCycler. PCR was conducted by initial denaturation at 95° C. for 5 min, followed by 40 cycles of 30 sec at 95° C., 30 sec at 60° C., and 30 sec at 72° C. Two sets of PCR primers were designed: one for unmethylated and one for methylated DNA sequences. The PCR primers for methylated DNA were used at a final concentration of 0.6 μM in each PCR reaction. The relative levels of methylated versus unmethylated DNA sequences are presented.
These experiments were performed as previously described (Zhou J et al., 2015, Nat Commun 6:10221) with minor modifications. Briefly, experiments were performed in a 10-cm plate scale using Chromatin Prep Module Kit (Thermo, catalog number 26158) according to the manufacturer's instructions. Agarose beads were used to pre-bind overnight with antibodies against TET3 (Millipore Sigma, ABE290), H3K4me3 (Cell signaling, C42D8) and H3K27me3 (Cell signaling, C36B11). Preimmune IgG was used as a negative control. LX-2 cells were cross-linked with 1% formaldehyde at RT for 10 min and the reaction was stopped by 1× glycine. ChIPs were carried out overnight at 4° C. Primers (Table 1) for the specific promoter regions of TGFB1, TSP1, and TGFBR2 were used to amplify input and ChIP-purified DNA. The relative enrichments of the indicated DNA regions were calculated using the Percent Input Method according to the manufacturer's instructions and were normalized to % input. Data are presented after normalization against background IgG signals.
In general terms: In qPCR the cycle at which signal appears reflects the starting amount.

Series [2] deals with UtLM and ht-UtLM leiomyoma cells. Put plainly: RT-qPCR and Western blot of gene expression in leiomyoma cells. The format is cell-based, human. An excerpt: Antibodies for TET3 (GeneTex, GTX121453; used at a dilution of 1/500), TGFBR2 (Abcam, ab184948; used at a dilution of 1/1000), TSP1 (Abcam, ab85762; used at a dilution of 1/500), MED12 (Novus Biological, NB100-2357; used at a dilution of 1/500), HMGA2 (Proteintech, 20795-1-AP; used at a dilution of 1/500), GRAF1 (Cell Signaling, 8802; used at a dilution of 1/500), SPARC (Cell Signaling, 8725; used at a dilution of 1/500), COL3A1 (LS-Bio, LS-C159386; used at a dilution of 1/1000), COL4A1 (LS-Bio, LS-C100552; used at a dilution of 1/500), COL5A2 (Origene, TA809611; used at a dilution of 1/500) and GAPDH (Abcam, ab128915; used at a dilution of 1/10000) were purchased. Human H19 siRNA (siH19) and control siRNA (siCon) were previously described (Ghazal S et al., 2015, EMBO Mol Med 7:996-1003). siTET3 (Ambion, 4392420/s47239), estradiol ([…], Sigma), and progesterone ([…], Sigma) were purchased. Estradiol and progesterone were dissolved in DMSO and used at a final concentration of 10^-8M. ht-UtLM cells tested negative for mycoplasma contamination were maintained in MEM (Sigma, #M3024) supplemented with 20% fetal bovine serum, 1×MEM Vitamin Solution (Invitrogen #11120-052), 1×MEM Amino Acids Solution (Invitrogen, #11130-051), and 1×MEM Non-Essential Amino Acids (Invitrogen #11140-050). Primary UtLM-1 and UtLM-2 cells were maintained in DMEM (Gibco, #10567014) supplemented with 20% fetal bovine serum, and 1% penicillin/streptomycin, 1% amphotericin B. All cells were transfected in a 24-well plate scale. To prepare siRNA transfection solution for each well, 10 pmol (5 pmol for primary cells) of siCon, siH19, or siTET3 were mixed with 25 μl of OPTI-MEM by gentle pipetting. In parallel, 1 μl of Lipofectamine 3000 was mixed with 25 μl of OPTI-MEM. Following 5 min of incubation at room temperature, the two were mixed by gentle inverting and incubated for 10 min at room temperature to allow siRNA/lipid complexes to form. At the end of incubation, the 50 μl of transfection solution was used to re-suspend the cell pellet (3×10^4 cells). After incubation at room temperature for 10 min, growth medium was added at a ratio of 1:9 (1 volume of transfection solution/9 volumes of growth medium), and the cell suspension was transferred to a new culture dish. After overnight incubation in a tissue culture incubator, the medium was replaced with fresh growth medium. For iLet 7 rescue experiments, 10 pmol of siCon/siH19 and 10 pmol of iCon/iLet7 were used for each well of 3×10^4 cells. RNA, genomic DNA, and protein were extracted and analyzed at the indicated time points following transfection.

“siTET3: TET3-specific siRNA (human), Ambion 4392420/s47239 (sense CAGCAACUCCUAGAACUGATT; antisense UCAGUUCUAGGAGUUGCUGGA; chemistry not given here)”: in series [1], the “H3K4me3 association with promoters” value is given as “significantly decreased H3K4me3”; the “H3K27me3 association with promoters” value is reported as “increased H3K27me3”; the “binding of TET3 to TGFB1, TSP1 and TGFBR2 promoters (ChIP-qPCR)” value is “significantly reduced”; the “methylation in the CTRRs of TGFB1, TSP1 and TGFBR2 (QMSP)” value is recorded as “increase in methylation in the CTRRs”. For the same substance, the “ratios of H3K4me3/H3K27me3” value in series [1] is “decreased significantly”. The “protein levels of MED12, TGFBR2, TSP1, GRAF1, SPARC, COL5A2, COL4A1, COL3A1 (Western blot)” value in series [2] (UtLM cells, vs siCon) was “all decreased”. The MED12 expression result in series [2] (ht-UtLM cells) is “lack of effects”. Moreover, the “mRNA expression of TET3, MED12, TGFBR2, TSP1, GRAF1, SPARC, COL3A1, COL4A1 and COL5A2” value in series [2] (primary human leiomyoma cells and ht-UtLM, 48 h, vs siCon) is “results similar to those of H19 knockdown were obtained”.
